# According to patent US10857112B2, “Small molecule inhibitors of RNA binding motif (RBM) proteins for the treatment of acute cellular injury” (University of Pittsburgh—Of the Commonwealth System of …, priority 2012, dated 2020):
# Columns and labels:
# [1] = test system: primary rat cortical neurons; assay: Stretch injury (in vitro TBI), LDH release and MTT metabolism; format: cell-based; details: 24 hours after injury
# Description: (§1) Rat cortical neurons are isolated from E16 embryos, and plated on silicone membranes (with defined elastic properties) held in a custom made stainless steel chamber. DIV 7-9 neurons are subjected to a (computer controlled) preset stretch injury; strain rate 10 s^−1 and 50% membrane deformation. AQ2S or DMSO (vehicle control) was added before (pre-treatment) or after post-treatment) injury, Cell death was assayed ˜24 hours after injury by measuring 1) extracellular LDH in the culture media (released from dying/dead cells), 2) caspase-3/7 activation (a protease involved in execution of cell death), and 3) MTT metabolism (a reagent metabolized by living cells).
# LDH is released by dying or injured cells. Primary rat cortical neurons were grown on a custom made stretch-injury device (An in vitro model of TBI). Neurons were pre-treated with 75 μM AQ2S or vehicle only (DMSO control) for 30 minutes, and subjected to a defined stretch injury. 24 hours after injury LDH levels were measured. […] Data was analyzed using a T-test; ***p<0.0001. […]
# (3-(4,5-Dimethylthiazol-2-yl)-2,5-diphenyltetrazolium bromide; MTT) is metabolized in living but not dying cells. […] MTT metabolism was measured 24 hours after injury. […] Data was analyzed using ANOVA and Fisher LSD post-hoc test. […]
# [2] = test system: Human derived myocardial heart cells; assay: STS injury in human heart cells, viability (CellTiter Blue); format: cell-based; details: 24 hour co-treatment; 500 nM or 1 μM STS, 125 μM AQ2S
# Description: Human derived myocardial heart cells were seeded onto 96-well plates. 24 hours later cells were injured with STS.
# Optimal cell death conditions were established in heart cells. Heart cells were treated with STS at increasing doses for 24 hours (FIG. 28A). […] Heart cells were treated with 500 nM STS+/−125 μM AQ2S or 1 μM STS+/−125 μM AQ2S for 24 hours. Cell viability was measured 24 hours later and expressed as relative fluorescent units (RFU). […] Data were analyzed by ANOVA (p<0.0001); Fisher LSD post-hoc test. * indicates p<0.05. Graphs show Mean+SEM.
# caspase-9 = assay: STS-induced caspase-9 activity in neurons; format: cell-based, rat; details: 150 nM STS 24 hours; co-treatment 75 μM
# caspase3/7 = assay: Stretch injury induced caspase3/7 activity; format: cell-based, rat; details: 75 μM pre-treated 30 minutes; 24 hours after injury
# Description: as §1
# Caspase activation plays a role in cell death after TBI. Primary rat cortical neurons were grown on a custom made stretch-injury device (An in vitro model of TBI). Neurons were pre-treated with 75 μM AQ2S or vehicle only (DMSO control) for 30 minutes, and subjected to a defined stretch injury. 24 hours after injury caspase3/7 activity was measured. […] (C) In a third experiment, AQ2S was administered 30 minutes before (pre-treatment) or 30 minutes after (post-treatment) stretch-TBI (FIG. 19C) (Experiment 3, n=3/treatment). Data was analyzed using ANOVA and Fisher LSD post-hoc test. Data is significant at (*) p<0.05. Graphs show Mean+SEM.
# [3] = test system: primary rat neurons, astrocytes, and cerebral endothelial cells; details: cited from earlier work
# caspase-3 = assay: Western blot of cleaved caspase-3 and caspase-3 substrates after STS; format: cell-based, rat; details: 125 μM
# Description: Caspase-3 inhibition was confirmed by biochemical analysis. Protein samples harvested from neurons incubated with 125 μM AQ2S and 500 nM STS for 6 hours were run on western blot. Consistent with caspase-3 inhibition, cleaved (i.e., activated) capase-3 was reduced in AQ2S-treated neurons (FIG. 8D). Finally, the inhibition of caspase-3 by AQ2S was confirmed biochemically via western blot analysis of substrate cleavage products. Poly ADP ribose polymerase is a classic caspase-3 substrate. The parent protein migrates at ˜116 KDa on SDS-PAGE. An 89-KDa product is produced upon cleavage by caspase-3. Cortical neurons were subjected to 250 nM STS for 6 hours.
# Neurons used for Western blot analysis for grown in 6-well plates. Briefly, neurons were treated with experimental compounds for the indicated time/conditions. At the end of each experiment, neurons were washed in ice cold PBS and harvested in 65 μL RIPA buffer containing protease inhibitors, phosphatase inhibitors, and EDTA. Extracts were collected in 0.5 mL tubes and sonicated for 20-30 seconds. Cell extracts were then spun at 4° C./16,000 g/10 minutes and stored at −80° C. until use. Frozen extracts were thawed on ice and protein concentration measured using the BCA assay (PIERCE). […] of sample protein was loaded per well of a 7.5% SDS precast gel (Biorad), and run for 30 minutes to 1 hour at 200 V. Kaleidoscope protein standards (Biorad) were run parallel to neuron extracts. Proteins were then transferred to PDVF membranes (run at 100 V/4° C./1.5 hours). PDVF membranes were washed once in tris buffered saline (TBS) and blocked for 1 hour in tris buffered saline/tween-20 with 7.5% nonfat milk (TBS-T/milk). Blots were incubated overnight at 4° C. with primary antibodies in TBS-T/milk. Cell Signaling Technology: phospho-AKT473, AKT Total, phospho-ERK1/2, ERK Total, cleavage caspase-3. Santa Cruz Antibodies: NF-κB p50 subunit, NF-κB p65 subunit, and beta actin. Calbiochem: 4-HNE antibody. Blots were washed 3 times (5 minutes each) with TBS, and incubated with secondary antibodies for 2 hours. Invitrogen: goat anti-rabbit or goat anti-mouse. Blots were washed 3 times (5 minutes each) with TBS, and incubated for 1 minute in HRP detection solution (Amersham). Films were exposed to blots and developed (SRX-101A, Konica Minolta Medical & Graphic Inc.). Re-probed blots (e.g. beta actin, AKT total, ERK total) were stripped in western blot stripping buffer (Fischer Scientific) for 10 minutes, washed once with TBS, re-blocked in TBS-T/milk for 1 hour, and incubated overnight with new primary antibody. Films were scanned (EPSON GT 20,000), and densitometry performed using UN-SCAN-IT software (Silk Scientific).
smiles,measurement,setting,value
"O=C1c2ccccc2C(=O)c2cc(S(=O)(=O)O)ccc21 [AQ2S, anthraquinone-2-sulfonic acid]",stretch injury induced LDH release (neuronal death),[1]; 75 μM pre-treated 30 minutes,significantly reduced neuronal death
same,MTT metabolism after stretch injury,[1]; 30 minutes before or 30 minutes after injury,increased by pre- or post-treatment with AQ2S
same,heart cell viability after STS,[2],increased viability
same,caspase-9 activity,caspase-9,significantly reduced baseline and injury activity levels
same,stretch injury induced caspase3/7 activity,caspase3/7,significantly reduced caspase activation
same,superoxide anion (O2^−) levels,"[3]; 980 μM, over 60 minute",significantly upregulated superoxide anion (O2^−) levels
same,toxicity,[3]; 980 μM,lack of toxicity
same,cell viability,[3]; 5000 μM,50%
same,"89-KDa PARP cleavage product, western blot",caspase-3; 250 nM STS 6 hours,significantly reduced the formation of the 89-KDa species
same,NF-κB p50 subunit protein levels,caspase-3; 250 nM STS 17 hours,No change
same,NF-κB p65 subunit protein levels,caspase-3; 250 nM STS 17 hours,increased
same,"cleaved (activated) caspase-3, western blot",caspase-3; 500 nM STS 6 hours,reduced
